Reference: paper PMC6257622, “Discovery and Structure–Activity-Relationship Study of N-Alkyl-5-hydroxypyrimidinone Carboxamides as Novel Antitubercular Agents Targeting Decaprenylphosphoryl-β-D-ribose 2′-Oxidase” (Journal of Medicinal Chemistry, 2018)
≈ marks a conversion by molar mass, not a printed value.

How the values were obtained:
Format in all cases: cell-based, Mycobacterium tuberculosis
[1] = test system: dprE12–TetON1 mutant (dprE1–dprE2 operon); settings: removal of anhydrotetracycline; OD580nm at day 10 relative to DMSO control
Mtb DprE1 Y314H mutant = test system: Mtb DprE1 Y314H mutant
Mtb DprE1 P116S mutant = test system: Mtb DprE1 P116S mutant
[2] = test system: P01-resistant mutants of Mtb H37Rv
Mtb DprE1 N364S mutant = test system: Mtb DprE1 N364S mutant
Mtb DprE1 Y314C mutant = test system: Mtb DprE1 Y314C mutant

C[C@H]1COC2(CCN(c3nc(=O)c4cc(C(F)(F)F)cc([N+](=O)[O-])c4s3)CC2)O1 [BTZ043, reference compound]
effect of dprE1–dprE2 transcriptional repression on susceptibility / growth inhibition [1]: increase in susceptibility

Cn1c(Cc2ccccc2C(F)(F)F)nc(C(=O)NCc2ccccc2)c(O)c1=O [Compound P01, N-Benzyl-5-hydroxy-1-methyl-6-oxo-2-(2-(trifluoromethyl)benzyl)-1,6-dihydropyrimidine-4-carboxamide]
MIC, DprE1 mutation Y314H (Mtb DprE1 Y314H mutant): >50 µM | fold change of MIC, Y314H (Mtb DprE1 Y314H mutant): >16 | MIC, DprE1 mutation P116S (Mtb DprE1 P116S mutant): 18.8 µM (≈ 7.85 µg/mL) | fold change of MIC, P116S (Mtb DprE1 P116S mutant): 6 | effect of dprE1–dprE2 transcriptional repression on susceptibility / growth inhibition [1]: more growth inhibition | level of resistance of P01-resistant mutants compared with the parental strain [2]: more than 10 fold | mutation frequency ([2]; at 10× MIC on solid medium): 7 × 10^–9 | MIC, DprE1 mutation N364S (Mtb DprE1 N364S mutant): 2.34 µM (≈ 0.977 µg/mL) | fold change of MIC, N364S (Mtb DprE1 N364S mutant): 0.75 | MIC, DprE1 mutation Y314C (Mtb DprE1 Y314C mutant): 25 µM (≈ 10.4 µg/mL) | fold change of MIC, Y314C (Mtb DprE1 Y314C mutant): 8

CCn1c(Cc2ccccc2C(F)(F)F)nc(C(=O)NCc2ccccc2)c(O)c1=O [Compound P04, N-Benzyl-1-ethyl-5-hydroxy-6-oxo-2-(2-(trifluoromethyl)benzyl)-1,6-dihydropyrimidine-4-carboxamide]
effect of dprE1–dprE2 transcriptional repression on susceptibility / growth inhibition [1]: more growth inhibition

CC(NC(=O)c1nc(Cc2ccccc2C(F)(F)F)n(C)c(=O)c1O)c1ccccc1 (stereo not shown) [Compound P13, 5-Hydroxy-1-methyl-6-oxo-N-(1-phenylethyl)-2-(2-(trifluoromethyl)benzyl)-1,6-dihydropyrimidine-4-carboxamide]
effect of dprE1–dprE2 transcriptional repression on susceptibility / growth inhibition [1]: did not result in growth inhibition

CCOC(=O)NC(=O)c1ccsc1NC(=O)c1nc2ccccc2s1 [TCA1, reference compound]
effect of dprE1–dprE2 transcriptional repression on susceptibility / growth inhibition [1]: increase in susceptibility

CC[C@@H](CO)NCCN[C@@H](CC)CO [ethambutol, reference compound]
effect of dprE1–dprE2 transcriptional repression on susceptibility / growth inhibition [1]: equipotent efficacy
